From ChEMBL document CHEMBL5252627, “Antiangiogenic Pterocarpan and Flavonoid Constituents of Erythrina lysistemon” (J Nat Prod, 2023)

Key:
[1] = Antiproliferative activity against human HREC cells assessed as cell growth inhibition incubated for 44 hrs by AlamarBlue reagent based fluorescence assay; type: functional
[2] = Cytotoxicity against human ARPE-19 cells assessed as cell growth inhibition incubated for 44 hrs by AlamarBlue reagent based fluorescence assay; type: toxicity
HREC = assay: Antiangiogenic activity against human HREC cells assessed as inhibition of invitro tubule formation by measuring tubule length at 0.05 to 50 uM and measured after 8 hrs by Matrigel based bright-field microscopy; type: functional, cell-based; conditions: dose 0.05-50 µM

Row | SMILES | GI50 [1] [µM] | GI50 at 44 h [2] [µM] | Activity (HREC)
1 | COc1ccc(CC2COc3cc(OC)c(OC)c(OC)c3C2=O)cc1OC(=O)[C@H](Cc1ccccc1)NC(=O)OC(C)(C)C (some centres not stated) | 0.018 | > 100 | 
2 | CC(C)=CCc1c(O)ccc2c1OC[C@H]1c3ccc4c(c3O[C@@H]21)CC(O)C(C)(C)O4 (some centres not stated) | 4.67 | > 100 | Dose-Dependent Effect
3 | CC1(C)C=Cc2c(ccc3c2O[C@H]2c4ccc5c(c4OC[C@@H]32)C=CC(C)(C)O5)O1 | > 100 | > 100 | 
4 | CC(C)=CCc1cc2c(c(CC=C(C)C)c1O)OC[C@@H](c1ccc(O)cc1O)C2=O | 5.85 | > 100 | Dose-Dependent Effect
5 | CC(C)=CCc1cc2c(c(CC=C(C)C)c1O)OC[C@@H](c1ccc(O)cc1O)C2 | 3.65 | > 100 | Dose-Dependent Effect
6 | CC(C)=CCc1c(O)ccc2c1O[C@H]1c3ccc(O)c(CC=C(C)C)c3OC[C@@H]21 [ERYBRAEDIN A] | 4.21 | > 100 | Dose-Dependent Effect
7 | CC(C)=CCc1cc2c(cc1O)OC[C@H]1c3ccc(O)c(CC=C(C)C)c3O[C@@H]21 [ERYBRAEDIN C] | 2.57 | > 100 | Dose-Dependent Effect
8 | CC1(C)C=Cc2c(ccc3c2O[C@H]2c4ccc(O)cc4OC[C@@H]32)O1 [PHASEOLIN] | 4.65 | > 100 | Dose-Dependent Effect
9 | CC(C)=CCc1c(O)ccc2c1O[C@H]1c3ccc(O)cc3OC[C@@H]21 [PHASEOLLIDIN] | > 100 | > 100 | 
10 | COc1ccc2c(c1CC=C(C)C)O[C@H]1c3ccc(O)cc3OC[C@@H]21 [SANDWICENSIN] | 5.91 | > 100 | Dose-Dependent Effect
